Test results as given in patent US20220289679A1, “HETEROCYCLIC COMPOUND” (Takeda Pharmaceutical Company Limited, priority 2019, published 2022).

The compounds below were run against T1, human GCS (glucosylceramide synthase) (Homo sapiens, UniProt Q16739) (assay: Glucosylceramide Synthase (GCS) Assay). Conditions: test compound 10 μM; microsome fraction of Expi293F cells expressing human GCS; 1.7 μM UDP-glucose, 3 μM C8 ceramide; room temperature 60 min; C8 glucosylceramide by Rapidfire MS/MS; read-out: GCS enzyme inhibitory rate at 10 μM (%).
T1 construct: made in house; host or cells: Expi293F cells (transient expression; microsome fraction)
T1 sequence (Q16739 1-394): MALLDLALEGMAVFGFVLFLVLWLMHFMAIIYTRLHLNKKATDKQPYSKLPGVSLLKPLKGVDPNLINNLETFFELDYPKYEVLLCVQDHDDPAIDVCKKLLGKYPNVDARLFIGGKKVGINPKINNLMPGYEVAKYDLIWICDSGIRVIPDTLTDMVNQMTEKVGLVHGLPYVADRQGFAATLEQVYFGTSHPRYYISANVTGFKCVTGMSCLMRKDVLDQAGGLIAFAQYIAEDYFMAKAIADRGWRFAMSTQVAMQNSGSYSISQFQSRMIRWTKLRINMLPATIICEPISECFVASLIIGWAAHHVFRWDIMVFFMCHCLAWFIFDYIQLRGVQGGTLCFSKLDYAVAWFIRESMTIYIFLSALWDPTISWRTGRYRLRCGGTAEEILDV
Type: biochemical
Method in brief: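 Enzyme source was a microsome fraction from Expi293F cells transiently expressing human GCS. Reaction ran 60 min at room temperature in 20 mM Tris pH 7.5 with 1.7 μM UDP-glucose (Km) and 3 μM liposomal C8 ceramide, compound at 10 μM final. C8 glucosylceramide quantified by RapidFire MS/MS; inhibition scaled between enzyme-free and DMSO controls.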

Structure (SMILES) | inhibition at 10 µM [%]
COC(C)(C)c1ccc(NC(=O)c2cccn(-c3ccccc3OCC(F)(F)F)c2=O)cn1 [Example 92, N-[6-(2-methoxypropan-2-yl)pyridin-3-yl]-2-oxo-1-[2-(2,2,2-trifluoroethoxy)phenyl]-1,2-dihydropyridine-3-carboxamide] | 95
O=C(Nc1ccc(OCC(F)(F)F)nc1)c1cncn(-c2ccc(F)cc2OCC(F)(F)F)c1=O [Example 93, 1-[4-fluoro-2-(2,2,2-trifluoroethoxy)phenyl]-6-oxo-N-[6-(2,2,2-trifluoroethoxy)pyridin-3-yl]-1,6-dihydropyrimidine-5-carboxamide] | 99
O=C(Nc1ccc(C2(O)CCC2)cc1)c1cccn(-c2ccccc2OCC(F)(F)F)c1=O [Example 96, N-[4-(1-hydroxycyclobutyl)phenyl]-2-oxo-1-[2-(2,2,2-trifluoroethoxy)phenyl]-1,2-dihydropyridine-3-carboxamide] | 100
O=C(Nc1ccc(C2(O)CCC2)cc1)c1cccn(-c2ccc(F)cc2OCC(F)(F)F)c1=O [Example 97, 1-[4-fluoro-2-(2,2,2-trifluoroethoxy)phenyl]-N-[4-(1-hydroxycyclobutyl)phenyl]-2-oxo-1,2-dihydropyridine-3-carboxamide] | 99
CC(C)(O)c1ccc(NC(=O)c2cncn(-c3ccc(F)cc3OCC(F)(F)F)c2=O)cc1 [Example 98, 1-[4-fluoro-2-(2,2,2-trifluoroethoxy)phenyl]-N-[4-(2-hydroxypropan-2-yl)phenyl]-6-oxo-1,6-dihydropyrimidine-5-carboxamide] | 98
CC(F)(F)COc1ccccc1-n1cccc(C(=O)Nc2ccc(C(C)(C)O)cc2)c1=O [Example 99, 1-[2-(2,2-difluoropropoxy)phenyl]-N-[4-(2-hydroxypropan-2-yl)phenyl]-2-oxo-1,2-dihydropyridine-3-carboxamide] | 99
O=C(Nc1ccc(OCC(F)(F)F)nc1)c1cccn(-c2ccc(F)cc2OCC(F)F)c1=O [Example 101, 1-[2-(2,2-difluoroethoxy)-4-fluorophenyl]-2-oxo-N-[6-(2,2,2-trifluoroethoxy)pyridin-3-yl]-1,2-dihydropyridine-3-carboxamide] | 99
CC(C)(O)c1ccc(NC(=O)c2cccn(-c3ccc(F)cc3OCC(F)F)c2=O)cc1 [Example 102, 1-[2-(2,2-difluoroethoxy)-4-fluorophenyl]-N-[4-(2-hydroxypropan-2-yl)phenyl]-2-oxo-1,2-dihydropyridine-3-carboxamide] | 98
N#Cc1cc(F)ccc1-n1cccc(C(=O)Nc2ccc(C(O)(C(F)(F)F)C(F)(F)F)cc2)c1=O [Example 104, 1-(2-cyano-4-fluorophenyl)-N-[4-(1,1,1,3,3,3-hexafluoro-2-hydroxypropan-2-yl)phenyl]-2-oxo-1,2-dihydropyridine-3-carboxamide] | 95
CC(C)(O)COc1cc(F)ccc1-n1cccc(C(=O)Nc2ccc(C(O)(C(F)(F)F)C(F)(F)F)cc2)c1=O [Example 105, 1-[4-fluoro-2-(2-hydroxy-2-methylpropoxy)phenyl]-N-[4-(1,1,1,3,3,3-hexafluoro-2-hydroxypropan-2-yl)phenyl]-2-oxo-1,2-dihydropyridine-3-carboxamide] | 99
CC(C)(O)c1ccc(NC(=O)c2ccnn(-c3ccc(F)cc3OCC(F)(F)C(F)(F)F)c2=O)cc1 [Example 106, 2-[4-fluoro-2-(2,2,3,3,3-pentafluoropropoxy)phenyl]-N-[4-(2-hydroxypropan-2-yl)phenyl]-3-oxo-2,3-dihydropyridazine-4-carboxamide] | 99
Cc1cc(C(=O)Nc2ccc(C(C)(C)O)cc2)c(=O)n(-c2ccc(F)cc2OCC(F)(F)F)c1 [Example 107, 1-[4-fluoro-2-(2,2,2-trifluoroethoxy)phenyl]-N-[4-(2-hydroxypropan-2-yl)phenyl]-5-methyl-2-oxo-1,2-dihydropyridine-3-carboxamide] | 100
CC(C)(O)c1ccc(NC(=O)c2cccn(-c3cc(F)c(F)cc3OCC(F)(F)F)c2=O)cc1 [Example 108, 1-[4,5-difluoro-2-(2,2,2-trifluoroethoxy)phenyl]-N-[4-(2-hydroxypropan-2-yl)phenyl]-2-oxo-1,2-dihydropyridine-3-carboxamide] | 95
Cc1cc(C(=O)Nc2ccc(C(O)(C(F)F)C(F)F)nc2)c(=O)n(-c2ccccc2OCC(F)F)n1 [Example 109, 2-[2-(2,2-difluoroethoxy)phenyl]-6-methyl-3-oxo-N-[6-(1,1,3,3-tetrafluoro-2-hydroxypropan-2-yl)pyridin-3-yl]-2,3-dihydropyridazine-4-carboxamide] | 100
O=C(Nc1ccc(OCC(F)(F)F)nc1)c1cccn(-c2ncncc2OCC(F)(F)F)c1=O [Example 110, 2-oxo-N-[6-(2,2,2-trifluoroethoxy)pyridin-3-yl]-1-[5-(2,2,2-trifluoroethoxy)pyrimidin-4-yl]-1,2-dihydropyridine-3-carboxamide] | 99
CC(C)(O)c1ccc(NC(=O)c2cccn(-c3cccnc3OCC(F)(F)F)c2=O)cc1 [Example 114, N-[4-(2-hydroxypropan-2-yl)phenyl]-2-oxo-2′-(2,2,2-trifluoroethoxy)-2H-[1,3′-bipyridine]-3-carboxamide] | 96
O=C(Nc1ccc(C(O)(C(F)F)C(F)F)nc1)c1ccnn(-c2ccc(F)cc2OCC(F)(F)F)c1=O [Example 117, 2-[4-fluoro-2-(2,2,2-trifluoroethoxy)phenyl]-3-oxo-N-[6-(1,1,3,3-tetrafluoro-2-hydroxypropan-2-yl)pyridin-3-yl]-2,3-dihydropyridazine-4-carboxamide] | 100
CC(C)(O)c1ccc(NC(=O)c2cccn(-c3ncncc3OCC(F)(F)F)c2=O)cn1 [Example 119, N-[6-(2-hydroxypropan-2-yl)pyridin-3-yl]-2-oxo-1-[5-(2,2,2-trifluoroethoxy)pyrimidin-4-yl]-1,2-dihydropyridine-3-carboxamide] | 74

The remaining lines, values ahead:

inhibition at 10 µM [%] | Structure (SMILES)
99 | CC(C)(O)c1ccc(NC(=O)c2ccnn(-c3ccc(F)cc3OCC(F)(F)F)c2=O)cc1 [Example 95, 2-[4-fluoro-2-(2,2,2-trifluoroethoxy)phenyl]-N-[4-(2-hydroxypropan-2-yl)phenyl]-3-oxo-2,3-dihydropyridazine-4-carboxamide]
70 | Cc1ccc(C(=O)Nc2ccc(C(C)(C)O)cc2)c(=O)n1-c1ccc(F)cc1OCC(F)(F)F [Example 100, 1-[4-fluoro-2-(2,2,2-trifluoroethoxy)phenyl]-N-[4-(2-hydroxypropan-2-yl)phenyl]-6-methyl-2-oxo-1,2-dihydropyridine-3-carboxamide]
100 | O=C(Nc1ccc(C(O)(C(F)(F)F)C(F)(F)F)cc1)c1cccn(-c2ccc(F)cc2OCC(F)(F)F)c1=O [Example 103, 1-[4-fluoro-2-(2,2,2-trifluoroethoxy)phenyl]-N-[4-(1,1,1,3,3,3-hexafluoro-2-hydroxypropan-2-yl)phenyl]-2-oxo-1,2-dihydropyridine-3-carboxamide]
98 | CC(C)(O)c1ccc(NC(=O)c2cccn(-c3ccc(F)c(F)c3OCC(F)(F)F)c2=O)cc1 [Example 111, 1-[3,4-difluoro-2-(2,2,2-trifluoroethoxy)phenyl]-N-[4-(2-hydroxypropan-2-yl)phenyl]-2-oxo-1,2-dihydropyridine-3-carboxamide]
94 | CC(C)(O)c1ccc(NC(=O)c2ccnn(-c3ccc(F)cc3OCC(F)(F)F)c2=O)cn1 [Example 112, 2-[4-fluoro-2-(2,2,2-trifluoroethoxy)phenyl]-N-[6-(2-hydroxypropan-2-yl)pyridin-3-yl]-3-oxo-2,3-dihydropyridazine-4-carboxamide]
98 | CC(C)(O)c1ccc(NC(=O)c2cccn(-c3cc(F)ccc3OCC(F)(F)F)c2=O)cc1 [Example 113, 1-[5-fluoro-2-(2,2,2-trifluoroethoxy)phenyl]-N-[4-(2-hydroxypropan-2-yl)phenyl]-2-oxo-1,2-dihydropyridine-3-carboxamide]
97 | O=C(Nc1ccc(C(O)(C(F)F)C(F)F)nc1)c1cccn(-c2cc(F)c(F)cc2OCC(F)(F)F)c1=O [Example 118, 1-[4,5-difluoro-2-(2,2,2-trifluoroethoxy)phenyl]-2-oxo-N-[6-(1,1,3,3-tetrafluoro-2-hydroxypropan-2-yl)pyridin-3-yl]-1,2-dihydropyridine-3-carboxamide]
74 | CC(C)(O)c1ccc(NC(=O)c2cccn(-c3cccnc3OCC(F)(F)F)c2=O)cn1 [Example 120, N-[6-(2-hydroxypropan-2-yl)pyridin-3-yl]-2-oxo-2′-(2,2,2-trifluoroethoxy)-2H-[1,3′-bipyridine]-3-carboxamide]
95 | O=C(Nc1ccc(C(O)(C(F)F)C(F)F)nc1)c1cccn(-c2ccnnc2OCC(F)(F)F)c1=O [Example 122, 2-oxo-N-[6-(1,1,3,3-tetrafluoro-2-hydroxypropan-2-yl)pyridin-3-yl]-1-[3-(2,2,2-trifluoroethoxy)pyridazin-4-yl]-1,2-dihydropyridine-3-carboxamide]
